# From EP0559571A1, “Thiazolidine-2,4-dione derivatives, process for their preparation and pharmaceutical compositions containing them” (ADIR ET COMPAGNIE, priority 1992, dated 1993)
# Tests used:
# [1] = tested on: souris ob/ob; assay: Hypoglycaemic activity in a non-insulin-dependent diabetes (NIDDM) model, ob/ob mouse; type: in vivo; conditions: ob/ob mice; for Pouvoir hypoglycémiant: at the equi-effective dose of Table 1, 4 days oral, base 100; for Dose provoquant le même effet hypoglycémiant: oral, daily for 4 days, glycaemia at J0 and J5, dose giving the same hypoglycaemic effect (base 100); for minimal effective dose: read-out: DMA (dose minimum active montrant une diminution de la glycémie de 10 à 15 %)
# Description: Les animaux (souris ob/ob) sont traités chaque jour, pendant 4 jours, en administrant par voie orale les composés de l'invention en suspension dans une solution à 20 % de gomme du Sénégal. Avant et après traitement, soit à J₀ et à J₅, le sang est prélevé par ponction du sinus orbital et la glycémie est déterminée. Le tableau 1 présente les doses des différents produits à administrer pour obtenir le même effet hypoglycémiant (base 100).
# L'étude d'un effet-dose montre que la dose donnant une diminution de la glycémie initiale de 30 % : ED₃₀ pour le composé de l'exemple 2 est inférieure à 0,1 mg/kg alors que celle de la pioglitazone est comprise entre 5 et 10 mg/kg. La dose minimum active : DMA montrant une diminution de la glycémie de 10 à 15 % est de 0,1 mg/kg pour le composé de l'exemple 2 alors qu'elle est de 3 mg/kg pour la pioglitazone.
# [2] = tested on: rats Zucker Fa/Fa mâles; assay: Model of decreased glucose tolerance with hyperinsulinaemia and hyperlipaemia, male Zucker Fa/Fa rats; type: in vivo; conditions: 5 mg/kg/day oral for 10 days, blood on day 11, control = 100; for AGL (%): free fatty acids; for TG (%): triglycerides
# Method: Les animaux (rats Zucker Fa/Fa mâles) sont traités, chaque jour, pendant 10 jours en administrant, par voie orale, les composés de l'invention à la dose de 5 mg/kg/jour en suspension dans une solution à 20 % de gomme du Sénégal. Le 11ème jour, les animaux sont sacrifiés et le sang recueilli afin de déterminer la glycémie, les triglycérides plasmatiques et l'insuline immuno-réactive. D'autre part, les animaux sont pesés avant et après traitement.
# Dans ces conditions, les composés de l'invention n'ont pas d'influence sur le taux de glucose circulant mais diminuent le taux de triglycérides et d'acides gras libres plasmatiques ainsi que celui de l'insuline immuno-réactive. Cette activité est égale ou supérieure à celle d'autres dérivés de thiazolidinedione de référence.
# [3] = Mus musculus, po, dose-effect study
SMILES,Pouvoir hypoglycémiant [1],Dose provoquant le même effet hypoglycémiant [1],"minimal effective dose [1, 3] [mg/kg]","ED30 ([1]; Mus musculus, po, dose-effect study, read-out: ED30 (dose donnant une diminution de la glycémie initiale de 30 %)) [mg/kg]",Glycémie (%) [2] [%],Plasma insuline (%) [2] [%],AGL (%) [2] [%],TG (%) [2] [%]
CC1(COc2ccc(CC3SC(=O)NC3=O)cc2)CCCCC1 (stereo not drawn) [Ciglitazone],100,50-100 mg/kg/jour,,,,,,
Cc1c(C)c2c(c(C)c1O)CCC(C)(COc1ccc(CC3SC(=O)NC3=O)cc1)O2 (stereo not drawn) [CS 045],100,150-200 mg/kg/jour,,,,,,
"O=C1NC(=O)C(Cc2ccc3oc(Cc4ccc5ccccc5c4)cc3c2)S1 (racemic) [Exemple 2, 5-[2-(2-Naphtylméthyl)-5-benzofuranylméthyl] thiazolidine-2,4-dione]",100,5-10 mg/kg/jour,0.1,< 0.1,97,50,48,35
CCc1ccc(CCOc2ccc(CC3SC(=O)NC3=O)cc2)nc1 (stereo not drawn) [Pioglitazone],100,10 mg/kg/jour,3,,103,61,52,44
O=C1NC(=O)C(Cc2ccc3c(c2)CC[C@H](Cc2ccccc2)O3)S1 (stereo partly drawn) [Englitazone],100,10-20 mg/kg/jour,,,,,,
